This series is described as follows: gradient 5% acetonitrile 3 min, to 50% in 2 min, to 85% in 15 min, held 3 min, 100 µL/min. Conditions: column: Zorbax Extend-C18 2.1 x 50 mm; eluents: water / acetonitrile, 0.1% formic acid. In short, it runs like this: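 Mixtures of ~100 pure standards were chromatographed on a Zorbax Extend-C18 column (2.1 × 50 mm, 1.8 μm) at 100 μL/min using water and acetonitrile, each with 0.1% formic acid. Detection used a quadrupole time-of-flight mass spectrometer in positive and negative ionization mode, and data collection spanned 3 months. Retention time was obtained from adduct peaks picked computationally and each checked manually.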
In turn, `COc1ccc(-n2c(=O)n(C)c(=O)c3cc(C(=O)NCc4cccc(OC)c4)cnc32)cc1` yielded an RP-LC retention time of 833 s.
Next, `Cc1ccc(C)c(NC(=O)N2CCN(c3nc(C)cc(N(C)C)n3)CC2)c1`: 572 s; `Cc1ccccc1Nc1c(-c2c(F)cccc2Cl)nc2ccc(Br)cn12`: 997 s.
Turning to `COc1ccc(-n2cc(C(=O)OCc3ccccn3)c3ccccc3c2=O)cc1`, the RP-LC retention time came out at 854 s.
Next, `Cc1nc(C(=O)Nc2ccc(Cl)c(C)c2)c(C)o1`: 1010 s.
Next, `CN1C(=O)c2cccn2CC1C(=O)Nc1cccc(Cl)c1` (stereo not given): 730 s.
Next, `Nc1ncnc2c1cnn2C1CCCCC1`: 672 s; `CSc1ccc(C2c3[nH]c4ccccc4c3CCN2C(=O)c2ccncc2)cc1` (stereo not given): 958 s.
Turning to `COCc1cc(=O)n(CC(=O)Nc2ccc(F)cc2)c(N)n1`, the RP-LC retention time was 585 s.
Next, `O=C(NC1CCCc2ccccc21)C1CCN(C(=O)C2Sc3ccccc3NC2=O)CC1` (stereo not given): 793 s; `Cn1ncc2c(N3CCCCC3)nc(C(=O)N3CCN(c4ccc(F)cc4)CC3)nc21`: 894 s.
Regarding `CCc1ccc(NC(=O)Cn2c(=O)cc(-c3nc(C)no3)c3ccccc32)cc1`, the RP-LC retention time worked out at 930 s.
The value for `O=C(NCC1CCS(=O)(=O)C1)c1cccnc1` (stereo not given) was 565 s.
Next, `COc1ccc2sc(N(CCN(C)C)C(=O)Cc3ccccc3)nc2c1`: 601 s; `CCOc1nc2ccccc2nc1N1CCCC(C(=O)N2CCc3ccccc3C2)C1` (stereo not given): 1310 s; `CCOc1nccnc1NC1CCN(C(=O)c2ccn(CC)n2)CC1`: 669 s.
Next, `O=C(Cc1ccsc1)N1CCCn2cc(-c3ccccc3F)nc21`: 784 s; `CN(CCc1ccccn1)C(=O)c1cccc(N2CCNC(c3ccccc3)C2)n1` (stereo not given): 555 s; `CCc1ccc2c(C)nc(NC3=NC(C)(C)C=C(C)N3)nc2c1`: 636 s.
`Cc1cccnc1NC(=O)c1c[nH]c2c(C(F)(F)F)cccc2c1=O` displayed an RP-LC retention time of 573 s.
Next, `c1ccc(Nc2c(-c3ccc(N4CCOCC4)cc3)nc3ccccn23)cc1`: 670 s; `O=C(Cn1ccn2nc(-c3ccccc3)c(CO)c2c1=O)Nc1ccc(Cl)cc1`: 856 s.
For the compound `Cc1cccc2nnc(N3CCN(C(=O)c4ccc(C(F)(F)F)cc4)CC3)n12`, the RP-LC retention time came out at 716 s.
Next, `COc1ccccc1CCNC(=O)CCc1csc(NC(=O)NC2CCCCC2)n1`: 786 s; `Cc1cccc(-c2noc(C3CCCN3S(=O)(=O)c3ccc(C)c(Cl)c3)n2)c1` (stereo not given): 1270 s; `Cc1ccc(-c2nc3cnccn3c2NCCC(=O)N2CCC(N3CCCCC3)CC2)cc1`: 598 s.
Next, `CCNC(=O)Nc1ccc(OCC(=O)NC(C)c2ccc(OC)c(OC)c2)nc1` (stereo not given): 644 s; `O=C(Nc1ccc2c(c1)OCCO2)N1CC(c2nc(CCOCc3ccccc3)no2)C1`: 853 s; `O=C(Cn1c(CN2CCOCC2)nc2ccccc21)N1CCCC1`: 579 s.
Next, `CCC(C(=O)Nc1ccc(C(C)=O)cc1)n1cnc2nc3c(cc2c1=O)CCCC3` (stereo not given): 748 s.
The compound `Cc1nc(NCCC2=CCCCC2)nc(N2CCOCC2)c1[N+](=O)[O-]` gave an RP-LC retention time of 965 s.
The value for `COc1ncc(C(=O)NCc2ccccc2C(F)(F)F)cn1` was 783 s; that for `CC(=O)Nc1ccc(NC(=O)C2CCN(S(=O)(=O)c3ccc4c(c3)CCCC(=O)N4)CC2)cc1` was 644 s; that for `O=C(c1cccc(F)c1)N1CCC(n2c(-c3ccco3)nc3cccnc32)C1` (stereo not given) was 744 s.
`Cc1oc(-c2[nH]ncc2C(=O)N2CCCCC2)cc1S(=O)(=O)N1CCC(C)CC1` had an RP-LC retention time of 809 s.
Next, `CCn1c(=O)sc2cc(S(=O)(=O)N3CCC(C(=O)N4CCCCC4C)CC3)ccc21` (stereo not given): 896 s; `CCOC(=O)c1ccccc1NC(=O)NCC(c1cccnc1)c1c[nH]c2ccccc12` (stereo not given): 756 s; `CCN1C(=O)c2cc(S(=O)(=O)NCc3ccccc3C)ccc2Oc2cccnc21`: 1020 s.
Next, `CCOC(=O)Cc1csc(NC(=O)CSc2nnc(-c3ccncc3)o2)n1`: 632 s; `CC1CCCN(CCCNC(=O)CCCN2C(=O)CCn3nc(-c4cccn4C)cc32)C1` (stereo not given): 614 s; `CC(C)c1ccc(C(C)NC(=O)C2CCN(Cc3cn(C)c4ccccc34)CC2)cc1` (stereo not given): 804 s.
The value for `COCCCNC(=O)C1CCN(c2nc3ccc(-c4cccnc4)nc3s2)CC1` was 585 s.
`Cc1ccc(CNC(=O)C2CCCN(C(=O)c3cc(-c4cccnc4)n[nH]3)C2)o1` (stereo not given): the RP-LC retention time amounted to 611 s.
Next, `CCN1C(=O)c2cc(C(=O)Nc3cccc(F)c3)nn2CC1(C)C(=O)NC1CCCC1` (stereo not given): 834 s; `CC(C)CCNC(=O)C1CCCN(c2nccn3nc(-c4ccccc4Cl)cc23)C1` (stereo not given): 969 s.
Next, `O=C(c1ccc(F)cc1)N1CCN(c2cnn3c(C4CC4)nnc3c2)CC1`: 636 s; `Cc1ccccc1NC(=O)CSc1nc(=O)n(CCN(C)C)c2c1CCC2`: 610 s; `CC(C)n1c(N2CCN(C(=O)Cc3ccc(F)cc3)CC2)cc(=O)n(C(C)C)c1=O`: 818 s.
Compound `O=C(CCn1cccn1)N1CCCn2ccnc2C1C1CCCC1` (stereo not given) showed an RP-LC retention time of 582 s.
The value for `O=C(Nc1ccc2nnc(-c3ccc(C(=O)N4CCCCC4)cc3)n2c1)C1CCC1` was 562 s.
The value for `Cc1cc(=O)n(CC(=O)Nc2ccc(F)cc2C)c(N2CCOCC2)n1` was 644 s; that for `CCS(=O)(=O)c1nc2ccc(NS(=O)(=O)c3ccc(F)cc3Cl)cc2s1` was 890 s; that for `Cc1ccc(C(=O)NC2CCCCCC2)cc1NC(=O)C1=CSCCO1` was 892 s.
Compound `CC1=C(c2ccccc2)S(=O)(=O)N=C1N1CCCN(C(=O)c2ccccc2F)CC1` returned an RP-LC retention time of 802 s.
On to `CN(C)S(=O)(=O)c1ccc(-c2nnc(C(=O)NC3CCCCCC3)o2)cc1`, for which the RP-LC retention time was 926 s.
The compound `CO[C@H]1C(=O)N(C(C)C)[C@H]1C1CCN(S(=O)(=O)c2cccc3cccnc23)CC1` came in with an RP-LC retention time of 775 s.
As for `O=C(/C=C/c1ccccc1)Nc1cccc(-c2nnc3n2CCCC3)c1`, the RP-LC retention time came to 708 s.
Next, `CN(C)C(=O)c1cc2c(s1)CCC(C(=O)N1CCN(c3ccccn3)CC1)C2` (stereo not given): 570 s; `O=C(NCc1ccc(F)cc1F)C1CCCN(c2ncnc3nn(-c4ccc(F)cc4)cc23)C1` (stereo not given): 700 s; `COc1ccc(-c2nc3cccnc3n2C2CCN(C(=O)c3cccs3)C2)cc1` (stereo not given): 732 s.
Next, `COc1ccc2c(ccn2CC(=O)N[C@@H](C)C(=O)O)c1`: 665 s; `CCc1nc2c(NC(=O)c3sccc3C)cccn2n1`: 831 s; `CC(C)(C)c1noc(-c2cccnc2-n2cnc(C(=O)Nc3ccc(F)cc3)c2)n1`: 984 s.
Next, `CCC(=O)N1CCc2c(C(=O)NCc3ccc(N4CCC(C)CC4)cc3)cccc21`: 640 s; `CCOC(=O)CCNC(=O)N1CCOc2ccc(N(C)C)cc2C1`: 583 s; `CN(C)S(=O)(=O)N(CC(=O)Nc1ccc(F)c(Cl)c1)c1ccccc1`: 986 s.
In turn, `O=C(Nc1nc(-c2ccccc2Cl)cs1)c1cccnc1` yielded an RP-LC retention time of 858 s.
The value for `O=C(NCCc1ccccc1)N(C1CCOCC1)C1CCN(Cc2cccc(F)c2)CC1` was 604 s; that for `O=C(NCc1ccccn1)c1cc(-c2cccnc2)nc2ccc(Cl)cc12` was 642 s.
Next, `Cc1ccc(C)c(Cn2nc3c(S(=O)(=O)N4CCCCC4)cccn3c2=O)c1`: 974 s; `CCN(C(=O)Cc1ccc(OC)cc1)c1nc(-c2ccccc2)cs1`: 1260 s; `CC1Cc2ccccc2N1C(=O)C1CCN(C(=O)c2cc(-c3ccncc3)n[nH]2)CC1` (stereo not given): 645 s.
The value for `Cc1ccc(C)c(NC(=O)c2c(C)sc3ncnc(N4CCCC(C)C4)c23)c1` (stereo not given) was 1240 s; that for `O=C(Cc1cccs1)N1CCCCC1c1nc(-c2cnccn2)no1` (stereo not given) was 726 s; that for `C=C1C(=O)OCC2C(C(=O)O)=CC3C(C)C(C)=CC123` (stereo not given) was 730 s.
As to `CCSc1nnc(NC(=O)C2CCN(S(=O)(=O)c3cn(CC)cn3)CC2)s1`, the RP-LC retention time turned out to be 715 s.
The compound `Cc1ccc(F)c(NC(=O)c2cn3c(n2)CSCC3)c1` yielded an RP-LC retention time of 811 s.
Next, `CSc1ccc(-c2noc(Cc3nnc(-c4ccc(F)cc4)o3)n2)cc1`: 1070 s.
Next, `O=C(c1ccccn1)N1CCN(C(=O)c2nnn3c2COC(c2ccc(Cl)cc2)C3)CC1` (stereo not given): 784 s; `CC(C)Cc1csc(-c2csc(S(=O)(=O)NCc3ccccc3F)c2)n1`: 1140 s.

These data come from the METLIN SMRT retention time set (Domingo-Almenara et al. 2019).
